# Columns and labels:
# [1] = Dissolution test by the paddle method in FaSSIF; assay type: physicochemical; conditions: FaSSIF pH 6.5, 37° C., 50 rpm, about 10 mg in 100 mL
# Protocol: The dissolution test was carried out by the paddle method using FaSSIF (an aqueous solution containing 3 mM sodium taurocholate, 0.75 mM lecithin, 29 mM sodium dihydrogen phosphate and 103 mM potassium chloride and adjusted to pH 6.5 by adding dropwise a sodium hydroxide aqueous solution) as the test solution. About 10 mg of the test compound was added to 100 mL of the test solution. Under the condition at 37° C. and 50 rpm, the test solution was stirred using a paddle. After the start of the stirring, 1 mL of the test solution was collected at each of the time points shown in Table 6 and filtered through a filter. A concentration of the test compound in the filtrate was measured by high-performance liquid chromatography (HPLC conditions were the same conditions described in Test Example 2).
# [2] = Solubility test (24 h shaking at room temperature, HPLC); assay type: physicochemical; conditions: thermodynamic from solid
# Protocol: About 1 mg of the test compound was weighed into a test tube and 1 mL of a test solution was added. For the test solutions, a 0.1 M hydrochloric acid aqueous solution (pH 1) and Britton-Robinson buffers (pH 3, pH 5 and pH 7; ionic strength 0.3) were used. The test solution was shaken at room temperature for 24 hours and subsequently filtered through a filter. A concentration of the test compound in the filtrate was measured by high-performance liquid chromatography to evaluate solubility. […] Additionally, high-performance liquid chromatography (HPLC) conditions are shown below.
# Column; YMC-Pack Pro C18, 4.6 mm×35 mm, 3 μm
# Mobile phase A; water:acetonitrile:70% perchloric acid=900:100:1
# Mobile phase B; water:acetonitrile:70% perchloric acid=100:900:1
# Column temperature; 40° C.
# Detection wavelength; 275 nm
# [3] = aqueous buffer, pH 3, Britton-Robinson buffer
# [4] = aqueous buffer, pH 5, Britton-Robinson buffer
# [5] = aqueous buffer, pH 7, Britton-Robinson buffer
# [6] = simulated gastric fluid, pH 1, 0.1M hydrochloric acid aqueous solution
SMILES,Concentration of Test compound ([1]; 10 Min) [mg/mL],Concentration of Test compound ([1]; 20 Min) [mg/mL],Concentration of Test compound ([1]; 24 Hours) [mg/mL],Concentration of Test compound ([1]; 30 Min) [mg/mL],Concentration of Test compound ([1]; 40 Min) [mg/mL],Concentration of Test compound ([1]; 60 Min) [mg/mL],Concentration of Test compound ([1]; 90 Min) [mg/mL],Concentration of Test compound ([1]; 120 Min) [mg/mL],Concentration of Test compound ([1]; 180 Min) [mg/mL],Concentration of Test compound ([1]; 240 Min) [mg/mL],"solubility at 24 h [2, 3] [µg/mL]","solubility at 24 h [2, 4] [µg/mL]","solubility at 24 h [2, 5] [µg/mL]","solubility at 24 h [2, 6] [µg/mL]"
"CO[C@H]1CN(C(=O)c2cc3nc(-c4cc(F)c(Cl)c(F)c4)cc(N(C)c4c(C)cccc4F)n3n2)CC[C@H]1CC(=O)O.Cl [Example 1, 2-((3R,4S)-1-(5-(4-chloro-3,5-difluorophenyl)-7-((2-fluoro-6-methylphenyl)(methyl)amino)pyrazolo[1,5-a]pyrimidine-2-carbonyl)-3-methoxypiperidin-4-yl)acetic Acid Hydrochloride]",0.030,0.038,0.103,0.046,0.051,0.061,0.072,0.078,0.085,0.087,< 1,1,> 1200,4
"CO[C@H]1CN(C(=O)c2cc3nc(-c4cc(F)c(Cl)c(F)c4)cc(N(C)c4c(C)cccc4F)n3n2)CC[C@H]1CC(=O)O [Reference Example 4, 2-((3R,4S)-1-(5-(4-chloro-3,5-difluorophenyl)-7-((2-fluoro-6-methylphenyl)(methyl)amino)pyrazolo[1,5-a]pyrimidine-2-carbonyl)-3-methoxypiperidin-4-yl)acetic Acid]",0.004,0.007,0.018,0.008,0.009,0.010,0.011,0.011,0.012,0.012,< 1,< 1,13,< 1

# Source: US11312720B2, “Hydrochloride salt of 2-((3R,4S)-1-(5-(4-chloro-3,5-difluorophenyl)-7-((2-fluoro-6-methylphenyl)(methyl)amino)pyrazolo[1,5-a]pyrimidine-2-carbonyl)-3-methoxypiperidin-4-yl) acetic acid and crystals thereof” (Eisai R&D Management Co., Ltd., priority 2018, dated 2022)
